According to patent publication US20090005398A1, “Methods For The Treatment of Central Nervous System Tumors” (priority 2007, published 2009):

What was measured:
[1] = High throughput solubility assay; format: physicochemical; details: aqueous buffer, pH 7.4, 0.05M phosphate buffer
Protocol: Two samples are prepared. One (the standard sample) contains the compound at a fixed concentration of 20 μM in an aqueous/organic mixed solvent cocktail. The other (the test sample) contains the compound at a maximum concentration of 200 μM in pH 7.4, 0.05M phosphate buffer and shaking for 24 h. The test sample is filtered by 0.45μ filter and then spun for 10 min to remove any undissolved solid. HPLC analyses are preformed on these samples. The peak areas are used for computing solubility.

[2] = system: MDA-MB-468; test: Cell-Titer-Glo cell proliferation; format: cell-based; details: Homo sapiens, breast, 72 h
Protocol: (§1) Exponentially growing cell lines of different tumor origins, cultured in appropriate media containing 10% fetal bovine serum at 37° C. in a 5% CO2 incubator were plated at low density (less than 2000 cells/well) in 96-well plates. Twenty four hours post-plating, cells were treated with different concentrations of compound ranging from 10 uM to 0.04 nM. Several wells were left untreated as a control. Seventy two hours post-treatment, cell numbers were determined using 50-100 ul per well of CellTiter-Glo (Promega #G7573). Plates were incubated at room temperature for 15 minutes and the chemiluminescent signal was read on the Victor V or Envison 2100 reader.
(§2) Concentration of compound that inhibited 50% of cell growth (IC50) was determined by 4 parameter fit of data using XLfit, (value of no cell control was subtracted from all samples for background). The Cell-Titer Glo data are shown in Table 3 below and represent a compilation of several different experiments, each performed using the general parameters outlined above, although minor variations may have been employed in some instances.

[3] = system: MCF7; test: Cell-Titer-Glo cell proliferation; format: cell-based; details: Homo sapiens, breast, 72 h
Protocol: as §1, §2

[4] = system: SKOV-3; test: Cell-Titer-Glo cell proliferation; format: cell-based; details: Homo sapiens, SK-OV-3, ovary, 72 h
Protocol: as §1, §2

[5] = system: COLO205; test: Cell-Titer-Glo cell proliferation; format: cell-based; details: Homo sapiens, COLO 205, colon, 72 h
Protocol: as §1, §2

[6] = system: ASPC3; test: Cell-Titer-Glo cell proliferation; format: cell-based; details: pancreas, 72 h
Protocol: as §1, §2

[7] = system: P388; test: Cell-Titer-Glo cell proliferation; format: cell-based; details: Mus musculus, blood, 72 h
Protocol: as §1, §2

[8] = system: Hela; test: Cell-Titer-Glo cell proliferation; format: cell-based; details: Homo sapiens, cervix, 72 h
Protocol: as §1, §2

[9] = system: SF-268; test: Washout assay, recovery of cell growth (MTT); format: cell-based; details: SF-268, glioblastoma; 3 days exposure then washout
Protocol: (§3) Seven glioma cell lines that can double at least once over three days were thawed and grown to 70-80% confluency before being used in the assay. On day 1, for each cell line, 2-3×10^5 cells were seeded into each well in 6-well cell culture plates and incubated at 37° C. overnight. […] The plates were incubated at 37° C. for 3 days.
(§4) On day 5, the compound was efficiently washed four times with culture medium supplemented with 20% fetal bovine serum (FBS) and then washed once in buffered saline solution (PBS). The cells were trypsinized. For each of the concentrations, compound-treated cell lines were plated into five 96-well plates at 5000 cells per well. For the next 4 consecutive days, one plate of the cells was taken out of the incubator and cell proliferation was measured by MTT ELISA assay.
(§5) The washout assay is designed to follow the cells' recovery from exposure to the compound. Each glioma cell line was assayed at least twice. The criteria for evaluating sensitivity or resistance was Last Growth Back Concentration (LGC), if LGC<=30 nM, the cell line is considered sensitive; if LGC>=1 uM, it is considered resistant; if LGC is in between these two concentrations, the cell line is considered intermediate. Based on criteria set, all the glioma cell lines appeared to be sensitive to the compound of Example 1.

[10] = system: H4; test: Washout assay, recovery of cell growth (MTT); format: cell-based; details: H4, glioma; 3 days exposure then washout
Protocol: as §3, §4, §5

[11] = system: SNB-19; test: Washout assay, recovery of cell growth (MTT); format: cell-based; details: SNB-19, glioblastoma; 3 days exposure then washout
Protocol: as §3, §4, §5

[12] = system: SF-295; test: Washout assay, recovery of cell growth (MTT); format: cell-based; details: SF-295, glioblastoma; 3 days exposure then washout
Protocol: as §3, §4, §5

[13] = system: SF-539; test: Washout assay, recovery of cell growth (MTT); format: cell-based; details: SF-539, astrocytoma; 3 days exposure then washout
Protocol: as §3, §4, §5

[14] = system: SW1088; test: Washout assay, recovery of cell growth (MTT); format: cell-based; details: SW1088, astrocytoma; 3 days exposure then washout
Protocol: as §3, §4, §5

[15] = system: A172; test: Washout assay, recovery of cell growth (MTT); format: cell-based; details: A172, glioblastoma; 3 days exposure then washout
Protocol: as §3, §4, §5

C[C@@H](Oc1cc(-n2cnc3ccc(CN4CCN(C)CC4)cc32)sc1C(N)=O)c1ccccc1C(F)(F)F [Example 1, 5-{6-[(4-Methylpiperazin-1-yl)methyl]-1H-benzimidazol-1-yl}-3-{(1R)-1-[2-(trifluoromethyl)phenyl]ethoxy}thiophene-2-carboxamide]
solubility at 24 h [1]: > 100 µM
IC50 [2]: < 500 nM
IC50 [3]: < 500 nM
IC50 [4]: < 500 nM
IC50 [5]: < 500 nM
IC50 [6]: < 500 nM
IC50 [7]: < 500 nM
IC50 [8]: < 500 nM
LGC (Last Growth Back Concentration) [9]: 10 nM
LGC (Last Growth Back Concentration) [10]: 10 nM
LGC (Last Growth Back Concentration) [11]: 10 nM
LGC (Last Growth Back Concentration) [12]: 10 nM
LGC (Last Growth Back Concentration) [13]: 30 nM
LGC (Last Growth Back Concentration) [14]: 10 nM
LGC (Last Growth Back Concentration) [15]: <10 nM
